This assay has as its system BDF1 mice, P388 leukemia ip, median survival T/C. As to the kind of experiment: NCI In Vivo Anticancer Drug Screen. Data for tumor model P388 Leukemia (intraperitoneal) in B6D2F1 (BDF1) mice. Conditions: endpoint: median survival time, higher = longer survival. Summed up: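 Vehicle-dosed animals serve as the reference; survival of compound-dosed, tumour-implanted mice is divided by it.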

Setting [1] is: dose: 100.0 mg/kg/injection, schedule: Q01DX009 (ip), vehicle: saline.
The mark [2] stands for this setting: dose: 100.0 mg/kg/injection, schedule: Q04DX003 (ip), vehicle: saline.
[3] abbreviates: dose: 200.0 mg/kg/injection, schedule: Q01DX009 (ip), vehicle: saline.
Setting [4] is: dose: 200.0 mg/kg/injection, schedule: Q04DX003 (ip), vehicle: saline.
The mark [5] stands for this setting: dose: 400.0 mg/kg/injection, schedule: Q01DX009 (ip), vehicle: saline.
Setting [6] is: dose: 400.0 mg/kg/injection, schedule: Q04DX003 (ip), vehicle: saline.
[7] abbreviates: dose: 25.0 mg/kg/injection, schedule: Q01DX009 (ip), vehicle: saline with Tween-80.
Setting [8] is: dose: 50.0 mg/kg/injection, schedule: Q01DX009 (ip), vehicle: saline with Tween-80.
Setting [9] is: dose: 50.0 mg/kg/injection, schedule: Q01DX009 (ip), vehicle: saline.
Setting [10] is: dose: 100.0 mg/kg/injection, schedule: Q01DX009 (ip), vehicle: Klucel (hydroxypropylcellulose) (HPC).
[11] abbreviates: dose: 100.0 mg/kg/injection, schedule: Q04DX003 (ip), vehicle: Klucel (hydroxypropylcellulose) (HPC).
Setting [12] is: dose: 200.0 mg/kg/injection, schedule: Q01DX009 (ip), vehicle: Klucel (hydroxypropylcellulose) (HPC).
The mark [13] stands for this setting: dose: 200.0 mg/kg/injection, schedule: Q04DX003 (ip), vehicle: Klucel (hydroxypropylcellulose) (HPC).
Where [14] appears, read: dose: 400.0 mg/kg/injection, schedule: Q01DX009 (ip), vehicle: Klucel (hydroxypropylcellulose) (HPC).
Where [15] appears, read: dose: 400.0 mg/kg/injection, schedule: Q04DX003 (ip), vehicle: Klucel (hydroxypropylcellulose) (HPC).
Where [16] appears, read: dose: 100.0 mg/kg/injection, schedule: Q04DX003 (ip), vehicle: saline with Tween-80.
Where [17] appears, read: dose: 200.0 mg/kg/injection, schedule: Q04DX003 (ip), vehicle: saline with Tween-80.
Setting [18] is: dose: 100.0 mg/kg/injection, schedule: Q01DX009 (ip), vehicle: saline with Tween-80.
[19] abbreviates: dose: 200.0 mg/kg/injection, schedule: Q01DX009 (ip), vehicle: saline with Tween-80.
Where [20] appears, read: dose: 10.0 mg/kg/injection, schedule: Q01DX010 (ip), vehicle: saline.
Setting [21] is: dose: 20.0 mg/kg/injection, schedule: Q01DX010 (ip), vehicle: saline.
Setting [22] is: dose: 40.0 mg/kg/injection, schedule: Q01DX010 (ip), vehicle: saline.
The mark [23] stands for this setting: dose: 400.0 mg/kg/injection, schedule: Q04DX003 (ip), vehicle: saline with Tween-80.

SMILES strings stand for the structures. Where “and” joins values, the source holds several entries; their conditions need not be identical. Equal values may be shown once. Toxic doses and inconclusive results are not listed.

Turning to `C#CCOCC(O)CN` (centres undefined), the T/C by setting is: under setting [1], 100 % of control; under setting [2], 110 % of control; under setting [3], 120 % of control; under setting [4], 100 % of control; under setting [5], 104 % of control; under setting [6], 100 % of control.

As for `CSc1cc(-c2ccc(Cl)cc2)s[s+]1`, the T/C was 104 % of control (dose: 3.12 mg/kg/injection, schedule: Q04DX003 (ip), vehicle: saline with Tween-80); 110 % of control (dose: 6.25 mg/kg/injection, schedule: Q01DX009 (ip), vehicle: saline with Tween-80); 111 % of control (dose: 6.25 mg/kg/injection, schedule: Q04DX003 (ip), vehicle: saline with Tween-80); 89 % of control (dose: 12.5 mg/kg/injection, schedule: Q01DX009 (ip), vehicle: saline with Tween-80); 109 % of control (dose: 12.5 mg/kg/injection, schedule: Q04DX003 (ip), vehicle: saline with Tween-80); 100 % of control under setting [7]. The T/C was 108 % of control (dose: 25.0 mg/kg/injection, schedule: Q04DX003 (ip), vehicle: saline with Tween-80); 91 % of control under setting [8]; 94 % of control (dose: 50.0 mg/kg/injection, schedule: Q04DX003 (ip), vehicle: saline with Tween-80).

`O=C(Nc1nncs1)c1cnccn1`: the T/C reads like this: (dose: 50.0 mg/kg/injection, schedule: Q04DX002 (ip), vehicle: saline with Tween-80) 98 % of control; (dose: 100.0 mg/kg/injection, schedule: Q04DX002 (ip), vehicle: saline with Tween-80) 97 % of control; (dose: 200.0 mg/kg/injection, schedule: Q04DX002 (ip), vehicle: saline with Tween-80) 104 % of control; (dose: 400.0 mg/kg/injection, schedule: Q04DX002 (ip), vehicle: saline with Tween-80) 168 % of control.

Take `CC(C)SC=O`: the T/C by setting is: (dose: 25.0 mg/kg/injection, schedule: Q01DX009 (ip), vehicle: saline) 100 % of control; under setting [9], 101 % of control; (dose: 50.0 mg/kg/injection, schedule: Q04DX003 (ip), vehicle: saline) 101 % of control; under setting [1], 92 % of control and 97 % of control; under setting [2], 109 % of control; under setting [3], 86 % of control. The T/C was 98 % of control under setting [4]; 97 % of control and 118 % of control under setting [5]; 103 % of control under setting [6].

On to `CCOC(=O)C(C(=O)OCC)C1C=CCC1` (centres undefined), for which the T/C runs as follows: under setting [10], 100 % of control; under setting [11], 95 % of control; under setting [12], 104 % of control; under setting [13], 116 % of control; under setting [14], 109 % of control; under setting [15], 100 % of control.

Consider `C#CC(=O)C1OC2OC(C)(C)OC2C2OC(C)(C)OC12` (centres undefined), for which the T/C was 100 % of control (dose: 3.12 mg/kg/injection, schedule: Q01DX005 (ip), vehicle: saline with Tween-80); 107 % of control (dose: 6.25 mg/kg/injection, schedule: Q01DX005 (ip), vehicle: saline with Tween-80); 107 % of control (dose: 12.5 mg/kg/injection, schedule: Q01DX005 (ip), vehicle: saline with Tween-80).

For `C[N+](C)(Cn1nc(Cl)c2ccc([N+](=O)[O-])cc21)Cn1nc(Cl)c2ccc([N+](=O)[O-])cc21`, the T/C is 100 % of control under setting [16] and 108 % of control under setting [17].

Turning to `CC(C)(C)S(=O)(=O)CC(=O)Nc1ccccc1`, the T/C is, setting by setting: (dose: 100.0 mg/kg/injection, schedule: Q01DX001 (ip), vehicle: saline with Tween-80) 96 % of control; (dose: 200.0 mg/kg/injection, schedule: Q01DX001 (ip), vehicle: saline with Tween-80) 101 % of control; (dose: 400.0 mg/kg/injection, schedule: Q01DX001 (ip), vehicle: saline with Tween-80) 96 % of control.

For the compound `COc1ccc(/C=C(/C#N)C(N)=O)cc1Br`, the T/C (dose: 100.0 mg/kg/injection, schedule: Q01DX001 (ip), vehicle: Klucel (hydroxypropylcellulose) (HPC)) was 100 % of control; the T/C under setting [1] was 100 % of control; the T/C under setting [2] is 100 % of control; the T/C (dose: 200.0 mg/kg/injection, schedule: Q01DX001 (ip), vehicle: Klucel (hydroxypropylcellulose) (HPC)) was 113 % of control; the T/C under setting [3] was 95 % of control; the T/C under setting [4] was 120 % of control. For the same compound, the T/C was 109 % of control (dose: 400.0 mg/kg/injection, schedule: Q01DX001 (ip), vehicle: Klucel (hydroxypropylcellulose) (HPC)); 90 % of control under setting [5]; 120 % of control under setting [6].

With `Cc1ccc(S(=O)(=O)N2CC3CC2CN3Cc2ccccc2)cc1` (centres undefined), the T/C by setting is: under setting [10], 109 % of control; under setting [11], 104 % of control; under setting [12], 104 % of control; under setting [13], 100 % of control; under setting [14], 100 % of control; under setting [15], 95 % of control.

In the case of `CCCN(/C=C/C=C/C=[N+](CCC)CCC)CCC`, the T/C reads like this: (dose: 0.03 mg/kg/injection, schedule: Q01DX009 (ip), vehicle: saline) 99 % of control; (dose: 0.05 mg/kg/injection, schedule: Q01DX009 (ip), vehicle: saline) 104 % of control; (dose: 0.1 mg/kg/injection, schedule: Q01DX009 (ip), vehicle: saline) 106 % of control.

As for `C=Cn1ccnc1C(O)(c1ccccc1)c1ccc(C(C)(C)C)cc1` (centres undefined), the T/C was 93 % of control under setting [8], 90 % of control under setting [18] and 93 % of control under setting [19].

As to `COc1ccc(-c2oc3cc(O)cc(O)c3c(=O)c2OC)cc1O`, the T/C is 100 % of control under setting [20], 100 % of control under setting [21] and 109 % of control under setting [22].

Take `N#Cc1c(Cl)c(Cl)c(OC(=O)c2ccc(Cl)c(Cl)c2)c(Cl)c1Cl`: the T/C was 117 % of control under setting [8], 108 % of control under setting [18] and 94 % of control under setting [19].

Take `COc1cccc(N)c1N`: the T/C was 124 % of control (dose: 50.0 mg/kg/injection, schedule: Q01DX009 (ip), vehicle: suspension in saline) and 98 % of control (dose: 200.0 mg/kg/injection, schedule: Q01DX009 (ip), vehicle: suspension in saline).

`Cc1cccc2c(N3CCOCC3)c3c(nc12)CCCCC3`: the T/C is, setting by setting: under setting [16], 105 % of control; under setting [17], 95 % of control; under setting [23], 100 % of control.

Regarding `CCOC(=O)[C@]1(Br)CC[C@@]1(Br)C(=O)OCC`, the T/C is, setting by setting: under setting [7], 112 % of control; under setting [8], 113 % of control and 114 % of control; under setting [18], 117 % of control.

As to `CC(O)C(=O)Oc1ccccc1` (centres undefined), the T/C under setting [1] was 90 % of control and the T/C under setting [3] is 109 % of control.

`C/C(Br)=C(/Br)C(=O)O`: the T/C was 94 % of control under setting [8], 97 % of control under setting [18] and 87 % of control under setting [19].

`S=c1cc(-c2ccccc2)ss1`: the T/C was 110 % of control and 101 % of control under setting [16]; 115 % of control and 101 % of control under setting [17]; 108 % of control under setting [23].

Turning to `O=C(O)c1cc(O)c(O)c(O)c1`, the T/C runs as follows: (dose: 1.25 mg/kg/injection, schedule: Q01DX009 (ip), vehicle: saline) 90 % of control; (dose: 2.5 mg/kg/injection, schedule: Q01DX009 (ip), vehicle: saline) 95 % of control; (dose: 5.0 mg/kg/injection, schedule: Q01DX009 (ip), vehicle: saline) 95 % of control; (dose: 10.0 mg/kg/injection, schedule: Q01DX009 (ip), vehicle: saline) 115 % of control; under setting [20], 110 % of control; under setting [21], 100 % of control. Besides, the T/C is 90 % of control under setting [22], 100 % of control under setting [9], 100 % of control under setting [1] and 104 % of control under setting [3].

As for `Cc1nnc2ncccn12`, the T/C reads like this: under setting [9], 96 % of control and 102 % of control and 106 % of control; under setting [1], 97 % of control and 102 % of control (2×); under setting [3], 115 % of control; under setting [5], 93 % of control.

The values are drawn from PubChem BioAssay AID328 (DTP/NCI, 2004).
